Results from patent US20060229433A1, “Modified antiviral peptides with increased activity and cell membrane affinity” (priority 2003, published 2006).
Where “and” joins values, the source holds several entries; their conditions need not be identical. Equal entries are not always repeated.

How the values were obtained:
Type in all cases: cell-based
HIV-1 NDK = assay: HIV-1 infection of C8166 cells (syncytia formation, p24 ELISA) with HIV-1 NDK; set-up: key to syncitia formed, Day 4 / syncitia formed, Day 5 / syncitia formed, Day 6 / syncitia formed, Day 7: ++, +, (+), (+)− and − represent decreasing numbers of syncitia formed; ++, +, (+), (+)− and − represent decreasing numbers of syncitia formed; ++, +, (+), (+)− and − represent decreasing numbers of syncitia formed; ++, +, (+), (+)− and − represent decreasing numbers of syncitia formed; ++, +, (+), (+)− and − represent decreasing numbers of syncitia formed; settings: for P 24: P 24 after Day 7
How it was run: (§1)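 C8166 T-cells were preincubated with peptide for 1 h at 37 °C, then exposed for 1 h to HIV-1 at 1000 TCID50/ml, washed, and cultured with peptide kept present throughout, with medium replaced at day 4. Infection was scored by syncytia formation and by supernatant p24 ELISA, with at least two runs in duplicate.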

HIV-1 NL 4-3 [1] = assay: HIV-1 infection of C8166 cells (syncytia formation, p24 ELISA) with HIV-1 NL 4-3
How it was run: as §1

HIV-1 NL 4-3 [2] = assay: as above; set-up: key: ++, +, (+), (+)− and − represent decreasing numbers of syncitia formed; ++, +, (+), (+)− and − represent decreasing numbers of syncitia formed; ++, +, (+), (+)− and − represent decreasing numbers of syncitia formed; ++, +, (+), (+)− and − represent decreasing numbers of syncitia formed; ++, +, (+), (+)− and − represent decreasing numbers of syncitia formed
How it was run: as §1

[3] = C8166 cells, HIV-1 subtype B NL 4-3, Table 9, two lines = tested twice, 8 days apart

## C[C@H](NC(=O)[C@H](CCCNC(=N)N)NC(=O)CNC(=O)[C@@H]1CCCN1C(=O)CN)C(=O)N[C@@H](Cc1ccccc1)C(=O)NCCCC[C@H](NC(=O)[C@H](Cc1ccccc1)NC(=O)[C@H](C)NC(=O)[C@H](CCCNC(=N)N)NC(=O)CNC(=O)[C@@H]1CCCN1C(=O)CN)C(=O)NCCCC[C@H](NC(=O)[C@H](CCCCNC(=O)[C@H](Cc1ccccc1)NC(=O)[C@H](C)NC(=O)[C@H](CCCNC(=N)N)NC(=O)CNC(=O)[C@@H]1CCCN1C(=O)CN)NC(=O)[C@H](Cc1ccccc1)NC(=O)[C@H](C)NC(=O)[C@H](CCCNC(=N)N)NC(=O)CNC(=O)[C@@H]1CCCN1C(=O)CN)C(=O)NCCCC[C@H](NC(=O)[C@H](CCCCNC(=O)[C@H](CCCCNC(=O)[C@H](Cc1ccccc1)NC(=O)[C@H](C)NC(=O)[C@H](CCCNC(=N)N)NC(=O)CNC(=O)[C@@H]1CCCN1C(=O)CN)NC(=O)[C@H](Cc1ccccc1)NC(=O)[C@H](C)NC(=O)[C@H](CCCNC(=N)N)NC(=O)CNC(=O)[C@@H]1CCCN1C(=O)CN)NC(=O)[C@H](CCCCNC(=O)[C@H](Cc1ccccc1)NC(=O)[C@H](C)NC(=O)[C@H](CCCNC(=N)N)NC(=O)CNC(=O)[C@@H]1CCCN1C(=O)CN)NC(=O)[C@H](Cc1ccccc1)NC(=O)[C@H](C)NC(=O)[C@H](CCCNC(=N)N)NC(=O)CNC(=O)[C@@H]1CCCN1C(=O)CN)C(=O)NCCC(=O)O [SPC3, (GPGRAF)8-K4-K2-K-βA-OH, reference compound]
HIV-1 NDK; 0.005 μM
  syncitia formed, Day 4: −
  syncitia formed, Day 5: +
  syncitia formed, Day 6: ++
  syncitia formed, Day 7: ++/T
  P 24: 23810 pg/mL
HIV-1 NDK; 0.01 μM
  syncitia formed, Day 4: −
  syncitia formed, Day 5: +
  syncitia formed, Day 6: ++
  syncitia formed, Day 7: ++/T
  P 24: 23810 pg/mL
HIV-1 NDK; 0.05 μM
  syncitia formed, Day 4: −
  syncitia formed, Day 5: +
  syncitia formed, Day 6: ++
  syncitia formed, Day 7: ++/T
  P 24: 23810 pg/mL
HIV-1 NDK; 0.1 μM
  syncitia formed, Day 4: −
  syncitia formed, Day 5: (+)
  syncitia formed, Day 6: + and ++
  syncitia formed, Day 7: ++
  P 24: 18810 pg/mL and 20850 pg/mL
HIV-1 NDK; 0.5 μM
  syncitia formed, Day 4: −
  syncitia formed, Day 5: −
  syncitia formed, Day 6: +
  syncitia formed, Day 7: ++
  P 24: 15173 pg/mL and 12840 pg/mL
HIV-1 NDK; 1 μM
  syncitia formed, Day 4: −
  syncitia formed, Day 5: −
  syncitia formed, Day 6: −
  syncitia formed, Day 7: (+)
HIV-1 NDK; 5 μM
  syncitia formed, Day 4: −
  syncitia formed, Day 5: −
  syncitia formed, Day 6: −
  syncitia formed, Day 7: −
HIV-1 NDK; HIV 1 NDK, Table 10
  IC50: 600 nM
  IC100: 5 µM
HIV-1 NL 4-3 [1]; 0.005 μM, Table 6
  Day 7 syncitia formed: ++/T
HIV-1 NL 4-3 [1]; 0.01 μM, Table 6
  Day 7 syncitia formed: ++/T
HIV-1 NL 4-3 [1]; 0.05 μM, Table 6
  Day 7 syncitia formed: ++/T
HIV-1 NL 4-3 [1]; C8166 cells, HIV-1 subtype B NL 4-3, Table 3
  IC50: 500 nM
HIV-1 NL 4-3 [1]; [3]
  IC50: 500 nM
  IC100: 5 µM
HIV-1 NL 4-3 [1]; Day 4, 5 μM, Table 1
  P 24: NEG
HIV-1 NL 4-3 [1]; Day 4, 5 μM, Table 2
  P 24: NEG
HIV-1 NL 4-3 [1]; Day 7, 0.005 μM, Table 6
  P 24: 23810 pg/mL
HIV-1 NL 4-3 [1]; Day 7, 0.01 μM, Table 6
  P 24: 23810 pg/mL
HIV-1 NL 4-3 [1]; Day 7, 0.05 μM, Table 6
  P 24: 23810 pg/mL
HIV-1 NL 4-3 [1]; Day 7, 0.1 μM, Table 6
  P 24: 17810 pg/mL and 19850 pg/mL
HIV-1 NL 4-3 [1]; Day 7, 0.5 μM, Table 6
  P 24: 5173 pg/mL and 4840 pg/mL
HIV-1 NL 4-3 [1]; Day 7, 2 μM, Table 1
  P 24: 7589 pg/mL and 14787 pg/mL
HIV-1 NL 4-3 [1]; Day 7, 5 μM, Table 1
  P 24: NEG
HIV-1 NL 4-3 [1]; Day 7, 5 μM, Table 2
  P 24: 288 pg/mL and 342 pg/mL
HIV-1 NL 4-3 [1]; Day 7, 5 μM, Table 6
  P 24: 3 pg/mL
HIV-1 NL 4-3 [2]; 0.005 μM, Table 6
  Day 4 syncitia formed: −
  Day 5 syncitia formed: +
  Day 6 syncitia formed: ++
HIV-1 NL 4-3 [2]; 0.01 μM, Table 6
  Day 4 syncitia formed: −
  Day 5 syncitia formed: +
  Day 6 syncitia formed: ++
HIV-1 NL 4-3 [2]; 0.05 μM, Table 6
  Day 4 syncitia formed: −
  Day 5 syncitia formed: +
  Day 6 syncitia formed: ++
HIV-1 NL 4-3 [2]; 0.1 μM, Table 6
  Day 4 syncitia formed: −
  Day 5 syncitia formed: (+)
  Day 6 syncitia formed: + and ++
  Day 7 syncitia formed: ++
HIV-1 NL 4-3 [2]; 0.5 μM, Table 6
  Day 4 syncitia formed: −
  Day 5 syncitia formed: −
  Day 6 syncitia formed: (+)
  Day 7 syncitia formed: +
HIV-1 NL 4-3 [2]; 1 μM, Table 6
  Day 4 syncitia formed: −
  Day 5 syncitia formed: −
  Day 6 syncitia formed: −
  Day 7 syncitia formed: (+)
HIV-1 NL 4-3 [2]; 2 μM, Table 1
  Day 4 syncitia formed: −
  Day 5 syncitia formed: (+) and (+)−
  Day 6 syncitia formed: +
  Day 7 syncitia formed: ++
HIV-1 NL 4-3 [2]; 5 μM, Table 1
  Day 4 syncitia formed: −
  Day 5 syncitia formed: −
  Day 6 syncitia formed: −
  Day 7 syncitia formed: −
HIV-1 NL 4-3 [2]; 5 μM, Table 6
  Day 4 syncitia formed: −
  Day 5 syncitia formed: −
  Day 6 syncitia formed: −
  Day 7 syncitia formed: −
